Among the data in patent US11021467B2, “Phosphatidylinositol 3-kinase inhibitors” (Gilead Sciences, Inc., priority 2014, dated 2021) are IC50 values, retold here.

The term IC50 denotes the concentration that gives 50% inhibition. A higher IC50 goes with weaker potency.

Holding throughout (assay): TR-FRET enzymatic activity assay against PI3K isoforms
Common to all, as to type: biochemical
Background: In TR-FRET formats the signal depends on donor and acceptor labels being close together.

The target in one assay is PI3Kβ (Homo sapiens (Human), UniProt P42338). As to conditions: PI3Kβ, TR-FRET, 2×Km ATP, 30 minutes at 25° C. The text has this:
(§1) The compounds of formula (I) were characterized for their enzymatic activity against the PI3K isoforms. […] TR-FRET monitored the formation of 3,4,5-inositol triphosphate molecule that competed with fluorescently labeled PIP3 for binding to the GRP-1 pleckstrin homology domain protein.

The next assay addresses PI3Kδ (Homo sapiens (Human), UniProt O00329). The conditions noted are these: 2×Km ATP, 30 minutes at 25° C.
Source text: as §1

The next assay addresses PI3Kγ (Homo sapiens (Human), UniProt P48736). The conditions noted are these: 2×Km ATP, 30 minutes at 25° C.
Source text: as §1

Chain of PI3Kβ (P42338 whole entry, the tested form may be a part, canonical isoform): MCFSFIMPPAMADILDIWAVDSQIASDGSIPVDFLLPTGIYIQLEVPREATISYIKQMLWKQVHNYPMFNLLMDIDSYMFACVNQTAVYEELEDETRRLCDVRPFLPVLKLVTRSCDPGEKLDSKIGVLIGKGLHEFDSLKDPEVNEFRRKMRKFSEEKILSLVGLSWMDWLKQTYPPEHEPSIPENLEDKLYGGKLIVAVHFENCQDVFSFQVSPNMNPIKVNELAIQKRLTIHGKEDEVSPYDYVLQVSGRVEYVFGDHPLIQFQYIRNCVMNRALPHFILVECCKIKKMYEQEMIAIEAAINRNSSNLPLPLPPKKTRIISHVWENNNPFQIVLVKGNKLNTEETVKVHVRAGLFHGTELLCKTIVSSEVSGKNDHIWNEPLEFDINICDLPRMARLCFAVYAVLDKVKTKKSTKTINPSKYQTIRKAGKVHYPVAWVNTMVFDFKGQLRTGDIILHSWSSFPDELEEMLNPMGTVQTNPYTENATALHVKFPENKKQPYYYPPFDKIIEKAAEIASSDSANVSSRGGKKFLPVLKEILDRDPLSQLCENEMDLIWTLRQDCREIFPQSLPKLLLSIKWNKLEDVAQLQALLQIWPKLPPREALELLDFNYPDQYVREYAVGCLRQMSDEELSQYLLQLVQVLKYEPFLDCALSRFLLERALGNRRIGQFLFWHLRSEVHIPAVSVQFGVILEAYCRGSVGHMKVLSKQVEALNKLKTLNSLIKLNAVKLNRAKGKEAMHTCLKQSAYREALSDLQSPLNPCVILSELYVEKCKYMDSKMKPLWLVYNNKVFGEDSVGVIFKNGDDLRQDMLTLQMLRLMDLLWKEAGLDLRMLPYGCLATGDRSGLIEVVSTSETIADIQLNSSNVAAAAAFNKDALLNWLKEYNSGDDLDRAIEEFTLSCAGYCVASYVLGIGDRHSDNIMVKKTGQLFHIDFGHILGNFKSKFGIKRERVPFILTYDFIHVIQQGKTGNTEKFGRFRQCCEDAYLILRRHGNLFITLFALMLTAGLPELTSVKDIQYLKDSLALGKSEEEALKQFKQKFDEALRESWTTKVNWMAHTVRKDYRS
Chain of PI3Kβ (P27986 whole entry partner, the tested form may be a part, canonical isoform): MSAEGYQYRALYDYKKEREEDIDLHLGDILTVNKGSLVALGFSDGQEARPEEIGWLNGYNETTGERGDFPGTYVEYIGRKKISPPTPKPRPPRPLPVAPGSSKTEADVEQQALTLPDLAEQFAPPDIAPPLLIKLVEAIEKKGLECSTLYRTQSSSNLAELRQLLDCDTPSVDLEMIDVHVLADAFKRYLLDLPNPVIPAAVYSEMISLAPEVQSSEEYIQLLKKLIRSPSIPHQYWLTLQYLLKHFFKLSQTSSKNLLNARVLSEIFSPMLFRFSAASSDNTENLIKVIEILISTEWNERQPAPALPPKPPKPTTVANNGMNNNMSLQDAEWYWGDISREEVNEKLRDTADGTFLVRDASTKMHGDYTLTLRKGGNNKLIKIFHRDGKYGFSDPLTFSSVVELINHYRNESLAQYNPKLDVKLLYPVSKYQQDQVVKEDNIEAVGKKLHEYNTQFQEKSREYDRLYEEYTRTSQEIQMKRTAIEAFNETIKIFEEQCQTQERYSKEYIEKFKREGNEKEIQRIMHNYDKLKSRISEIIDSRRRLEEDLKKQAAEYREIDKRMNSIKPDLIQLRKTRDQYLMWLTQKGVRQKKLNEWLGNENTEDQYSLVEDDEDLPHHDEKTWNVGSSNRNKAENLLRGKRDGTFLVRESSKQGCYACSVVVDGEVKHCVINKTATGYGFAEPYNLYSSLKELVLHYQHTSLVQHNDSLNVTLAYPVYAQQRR
Chain of PI3Kγ (P48736 whole entry): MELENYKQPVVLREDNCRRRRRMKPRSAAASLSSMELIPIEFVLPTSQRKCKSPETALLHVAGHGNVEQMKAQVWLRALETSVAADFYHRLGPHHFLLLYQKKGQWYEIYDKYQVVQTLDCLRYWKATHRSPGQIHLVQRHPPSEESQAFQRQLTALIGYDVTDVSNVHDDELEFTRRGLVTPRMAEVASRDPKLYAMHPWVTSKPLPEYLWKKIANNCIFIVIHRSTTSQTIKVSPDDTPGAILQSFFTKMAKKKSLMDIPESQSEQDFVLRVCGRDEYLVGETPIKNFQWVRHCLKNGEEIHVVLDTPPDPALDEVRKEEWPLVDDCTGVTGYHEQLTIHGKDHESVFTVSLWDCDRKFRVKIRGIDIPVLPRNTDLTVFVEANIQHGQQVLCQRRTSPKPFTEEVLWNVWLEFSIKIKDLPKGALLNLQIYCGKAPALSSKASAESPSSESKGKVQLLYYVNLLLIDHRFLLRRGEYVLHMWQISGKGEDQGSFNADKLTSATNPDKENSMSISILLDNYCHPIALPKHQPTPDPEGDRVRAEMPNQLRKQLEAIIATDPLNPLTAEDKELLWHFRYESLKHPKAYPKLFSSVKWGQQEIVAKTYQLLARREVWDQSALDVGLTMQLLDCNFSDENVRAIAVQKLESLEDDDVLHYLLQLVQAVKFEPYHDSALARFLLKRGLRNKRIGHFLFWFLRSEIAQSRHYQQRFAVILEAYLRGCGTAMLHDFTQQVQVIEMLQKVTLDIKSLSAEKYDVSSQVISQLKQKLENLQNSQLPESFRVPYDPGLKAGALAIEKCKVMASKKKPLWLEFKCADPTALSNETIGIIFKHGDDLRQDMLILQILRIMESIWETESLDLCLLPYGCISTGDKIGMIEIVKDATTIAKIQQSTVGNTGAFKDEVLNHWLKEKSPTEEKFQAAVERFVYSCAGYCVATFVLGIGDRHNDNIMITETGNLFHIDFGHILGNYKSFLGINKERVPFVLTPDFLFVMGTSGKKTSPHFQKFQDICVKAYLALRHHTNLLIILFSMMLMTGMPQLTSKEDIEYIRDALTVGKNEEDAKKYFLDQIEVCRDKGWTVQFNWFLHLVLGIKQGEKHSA
Chain of PI3Kδ (O00329 whole entry): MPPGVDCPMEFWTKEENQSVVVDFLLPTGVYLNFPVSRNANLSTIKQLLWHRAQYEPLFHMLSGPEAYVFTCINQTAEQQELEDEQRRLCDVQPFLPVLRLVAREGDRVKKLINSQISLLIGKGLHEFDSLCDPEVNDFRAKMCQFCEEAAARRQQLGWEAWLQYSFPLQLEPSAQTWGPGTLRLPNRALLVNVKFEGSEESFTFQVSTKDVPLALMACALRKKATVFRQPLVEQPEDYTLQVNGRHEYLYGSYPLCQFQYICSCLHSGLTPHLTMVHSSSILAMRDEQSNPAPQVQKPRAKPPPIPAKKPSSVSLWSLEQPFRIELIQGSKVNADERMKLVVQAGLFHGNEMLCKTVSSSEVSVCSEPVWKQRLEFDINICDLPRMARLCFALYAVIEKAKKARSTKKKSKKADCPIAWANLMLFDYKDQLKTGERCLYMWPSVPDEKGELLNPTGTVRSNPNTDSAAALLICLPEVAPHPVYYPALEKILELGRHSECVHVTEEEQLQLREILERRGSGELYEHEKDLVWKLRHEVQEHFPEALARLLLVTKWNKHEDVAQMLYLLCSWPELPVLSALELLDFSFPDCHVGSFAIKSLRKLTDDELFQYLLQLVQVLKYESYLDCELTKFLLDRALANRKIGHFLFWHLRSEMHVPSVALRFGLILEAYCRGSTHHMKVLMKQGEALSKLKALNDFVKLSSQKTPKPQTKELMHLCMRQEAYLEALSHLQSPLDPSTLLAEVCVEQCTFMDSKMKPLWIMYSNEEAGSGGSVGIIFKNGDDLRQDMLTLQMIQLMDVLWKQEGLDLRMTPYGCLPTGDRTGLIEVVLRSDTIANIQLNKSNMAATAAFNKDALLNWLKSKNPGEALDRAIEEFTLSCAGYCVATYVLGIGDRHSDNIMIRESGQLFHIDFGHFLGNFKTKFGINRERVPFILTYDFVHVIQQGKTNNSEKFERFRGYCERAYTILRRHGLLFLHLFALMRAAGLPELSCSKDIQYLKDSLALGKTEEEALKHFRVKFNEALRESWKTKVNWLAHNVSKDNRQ
Chain of PI3Kδ (P27986 whole entry partner): as the sequence (P27986 whole entry partner, the tested form may be a part, canonical isoform) above

As to `N#Cc1c(N)nc(N)nc1N[C@H](c1nc2c(Cl)ccc(Cl)c2c(=O)n1CCCC(N)=O)C1CC1` [Compound 65, (S)-4-(5,8-dichloro-2-(cyclopropyl((2,6-diamino-5-cyanopyrimidin-4-yl)amino)methyl)-4-oxoquinazolin-3(4H)-yl)butanamide], the IC50 against PI3Kβ stood at 7 nM; on PI3Kδ, 1 nM; against PI3Kγ, 470 nM.

On to `N#Cc1c(N)nc(N)nc1N[C@H](c1nc2cccc(Cl)c2c(=O)n1CCCC(N)=O)C1CC1` [Compound 66, (S)-4-(5-chloro-2-(cyclopropyl((2,6-diamino-5-cyanopyrimidin-4-yl)amino)methyl)-4-oxoquinazolin-3(4H)-yl)butanamide], for which the values for the IC50 against PI3Kβ, against PI3Kδ and against PI3Kγ were 4 nM, 1 nM and 97 nM, respectively.

As to `NC(=O)CCn1c([C@@H](Nc2nc(N)nc(N)c2Cl)C2CC2)nc2cccc(Cl)c2c1=O` [Compound 68, (S)-3-(5-chloro-2-(cyclopropyl((2,6-diamino-5-chloropyrimidin-4-yl)amino)methyl)-4-oxoquinazolin-3(4H)-yl)propanamide], the 50% inhibitory concentration (IC50) at PI3Kβ amounted to 520 nM; against PI3Kδ, 5 nM; against PI3Kγ, 1000 nM.

Consider `NC(=O)CCCn1c([C@@H](Nc2nc(N)nc(N)c2Cl)C2CC2)nc2cccc(Cl)c2c1=O` [Compound 69, (S)-4-(5-chloro-2-(cyclopropyl((2,6-diamino-5-chloropyrimidin-4-yl)amino)methyl)-4-oxoquinazolin-3(4H)-yl)butanamide], for which the IC50 against PI3Kβ was found to be 49 nM; against PI3Kδ, 2 nM; against PI3Kγ, 1300 nM.

For the compound `C[C@H](Nc1ncnn2ccnc12)c1nc2cccc(Cl)c2c(=O)n1CCCN` [Compound 71, (S)-3-(3-aminopropyl)-5-chloro-2-(1-(imidazo[2,1-f][1,2,4]triazin-4-ylamino)ethyl)quinazolin-4(3H)-one], the IC50 was 240 nM against PI3Kβ, 34 nM at PI3Kδ and at least 10000 nM against PI3Kγ.

With `C[C@H](Nc1ncnc2scnc12)c1nc2cccc(Cl)c2c(=O)n1CCCN` [Compound 72, (S)-3-(3-aminopropyl)-5-chloro-2-(1-(thiazolo[5,4-d]pyrimidin-7-ylamino)ethyl)quinazolin-4(3H)-one], the figures for the IC50 against PI3Kβ, on PI3Kδ and at PI3Kγ were 35 nM, 12 nM and 7900 nM, respectively.

As for `C[C@H](Nc1ncnc(N)c1C#N)c1nc2cccc(Cl)c2c(=O)n1CCCN` [Compound 73, (S)-4-amino-6-((1-(3-(3-aminopropyl)-5-chloro-4-oxo-3,4-dihydroquinazolin-2-yl)ethyl)amino)pyrimidine-5-carbonitrile], the figures for the IC50 against PI3Kβ, against PI3Kδ and against PI3Kγ were 21 nM, 6 nM and 9400 nM, respectively.

Turning to `CC(C)NCC(O)CCn1c([C@H](C)Nc2nc(N)nc(N)c2C#N)nc2cccc(Cl)c2c1=O` (stereo partly drawn) [Compound 74, 2,4-diamino-6-(((1S)-1-(5-chloro-3-(3-hydroxy-4-(isopropylamino)butyl)-4-oxo-3,4-dihydroquinazolin-2-yl)ethyl)amino)pyrimidine-5-carbonitrile], the results for the IC50 on PI3Kβ, at PI3Kδ and on PI3Kγ were 17 nM, 1 nM and 1620 nM, respectively.

Regarding `C[C@H](Nc1nc(N)nc(N)c1C#N)c1nc2cccc(Cl)c2c(=O)n1CCC(O)CNC(C)(C)C` (stereo partly drawn) [Compound 75, 2,4-diamino-6-(((1S)-1-(3-(4-(tert-butylamino)-3-hydroxybutyl)-5-chloro-4-oxo-3,4-dihydroquinazolin-2-yl)ethyl)amino)pyrimidine-5-carbonitrile], the results for the IC50 against PI3Kβ, against PI3Kδ and against PI3Kγ were 19 nM, 1 nM and 2300 nM, respectively.

With `C[C@H](Nc1nc(N)nc(N)c1C#N)c1nc2cccc(Cl)c2c(=O)n1Cc1cc[nH]n1` [Compound 76, (S)-4-((1-(3-((1H-pyrazol-3-yl)methyl)-5-chloro-4-oxo-3,4-dihydroquinazolin-2-yl)ethyl)amino)-2,6-diaminopyrimidine-5-carbonitrile], the IC50 against PI3Kβ worked out at 46 nM; at PI3Kδ, 2 nM; against PI3Kγ it was 160 nM.

For `C[C@H](Nc1ncnc(N)c1C#N)c1nc2cccc(Cl)c2c(=O)n1Cc1cc[nH]n1` [Compound 77, (S)-4-((1-(3-((1H-pyrazol-3-yl)methyl)-5-chloro-4-oxo-3,4-dihydroquinazolin-2-yl)ethyl)amino)-6-aminopyrimidine-5-carbonitrile], the IC50 against PI3Kβ was found to be 860 nM; against PI3Kδ, 33 nM; against PI3Kγ it was 7000 nM.

In the case of `C[C@H](Nc1ncnn2ccnc12)c1nc2cccc(Cl)c2c(=O)n1Cc1cc[nH]n1` [Compound 78, (S)-3-((1H-pyrazol-3-yl)methyl)-5-chloro-2-(1-(imidazo[2,1-f][1,2,4]triazin-4-ylamino)ethyl)quinazolin-4(3H)-one], the IC50 against PI3Kβ was found to be 920 nM; against PI3Kδ, 49 nM; against PI3Kγ, 3000 nM.

On to `C[C@H](Nc1nc(N)nc(N)c1C#N)c1nc2cccc(Cl)c2c(=O)n1Cc1cn[nH]c1` [Compound 79, (S)-4-((1-(3-((1H-pyrazol-4-yl)methyl)-5-chloro-4-oxo-3,4-dihydroquinazolin-2-yl)ethyl)amino)-2,6-diaminopyrimidine-5-carbonitrile], for which the IC50 was 40 nM against PI3Kβ, 2 nM against PI3Kδ and 380 nM against PI3Kγ.

On to `C[C@H](Nc1nc(N)nc(N)c1C#N)c1nc2cccc(Cl)c2c(=O)n1Cc1ncc[nH]1` [Compound 80, (S)-4-((1-(3-((1H-imidazol-2-yl)methyl)-5-chloro-4-oxo-3,4-dihydroquinazolin-2-yl)ethyl)amino)-2,6-diaminopyrimidine-5-carbonitrile], for which the IC50 against PI3Kβ came to 1100 nM; on PI3Kδ it was 27 nM; against PI3Kγ it was 2400 nM.

With `C[C@H](Nc1nc(N)nc(N)c1C#N)c1nc2cccc(Cl)c2c(=O)n1Cc1nc[nH]n1` [Compound 81, (S)-4-((1-(3-((1H-1,2,4-triazol-3-yl)methyl)-5-chloro-4-oxo-3,4-dihydroquinazolin-2-yl)ethyl)amino)-2,6-diaminopyrimidine-5-carbonitrile], the IC50 against PI3Kβ came out at 47 nM; on PI3Kδ it was 5 nM; against PI3Kγ, 320 nM.

Consider `C[C@H](Nc1ncnc(N)c1C#N)c1nc2cccc(Cl)c2c(=O)n1[C@H]1C[C@@H](O)C1` [Compound 82, 4-amino-6-(((S)-1-(5-chloro-3-((1S,3R)-3-hydroxycyclobutyl)-4-oxo-3,4-dihydroquinazolin-2-yl)ethyl)amino)pyrimidine-5-carbonitrile], for which the figures for the IC50 against PI3Kβ, against PI3Kδ and against PI3Kγ were 150 nM, 5 nM and 2300 nM, respectively.

Consider `C[C@H](Nc1ncnc(N)c1C#N)c1nc2cccc(Cl)c2c(=O)n1CCCO` [Compound 83, (S)-4-amino-6-((1-(5-chloro-3-(3-hydroxypropyl)-4-oxo-3,4-dihydroquinazolin-2-yl)ethyl)amino)pyrimidine-5-carbonitrile], for which the IC50 at PI3Kβ was determined as 180 nM; against PI3Kδ it was 6 nM; against PI3Kγ, 2900 nM.

In the case of `CC(CCO)n1c([C@H](C)Nc2ncnc(N)c2C#N)nc2cccc(Cl)c2c1=O` (stereo partly drawn) [Compound 84, 4-amino-6-(((1S)-1-(5-chloro-3-(4-hydroxybutan-2-yl)-4-oxo-3,4-dihydroquinazolin-2-yl)ethyl)amino)pyrimidine-5-carbonitrile], the IC50 against PI3Kβ was 260 nM; at PI3Kδ, 4 nM; against PI3Kγ, 2900 nM.

As for `C[C@H](Nc1ncnc(N)c1C#N)c1nc2cccc(Cl)c2c(=O)n1[C@H]1CC[C@H](O)CC1` [Compound 85, (S)-4-amino-6-((1-(5-chloro-3-(4-hydroxycyclohexyl)-4-oxo-3,4-dihydroquinazolin-2-yl)ethyl)amino)pyrimidine-5-carbonitrile], the results for the IC50 against PI3Kβ, against PI3Kδ and at PI3Kγ were 92 nM, 3 nM and 1200 nM, respectively.

Turning to `C[C@H](Nc1ncnc(N)c1C#N)c1nc2cccc(Cl)c2c(=O)n1[C@H]1C[C@H](N)C1` [Compound 86, (S)-4-amino-6-((1-(3-(3-aminocyclobutyl)-5-chloro-4-oxo-3,4-dihydroquinazolin-2-yl)ethyl)amino)pyrimidine-5-carbonitrile], the figures for the IC50 on PI3Kβ, at PI3Kδ and against PI3Kγ were 620 nM, 24 nM and at least 10000 nM, respectively.

`C[C@H](Nc1ncnc(N)c1C#N)c1nc2cccc(Cl)c2c(=O)n1CC1CCNCC1` [Compound 87, (S)-4-amino-6-((1-(5-chloro-4-oxo-3-(piperidin-4-ylmethyl)-3,4-dihydroquinazolin-2-yl)ethyl)amino)pyrimidine-5-carbonitrile]: the IC50 on PI3Kβ was 150 nM; at PI3Kδ, 4 nM; against PI3Kγ, at least 10000 nM.

As for `C[C@H](Nc1ncnc(N)c1C#N)c1nc2cccc(Cl)c2c(=O)n1CC1CNCCO1` (stereo partly drawn) [Compound 88, 4-amino-6-(((1S)-1-(5-chloro-3-(morpholin-2-ylmethyl)-4-oxo-3,4-dihydroquinazolin-2-yl)ethyl)amino)pyrimidine-5-carbonitrile], the figures for the IC50 against PI3Kβ, on PI3Kδ and against PI3Kγ were 250 nM, 42 nM and at least 10000 nM, respectively.

As for `C[C@H](Nc1ncnc(N)c1C#N)c1nc2cccc(Cl)c2c(=O)n1CC1CCNC1` (stereo partly drawn) [Compound 89, 4-amino-6-(((1S)-1-(5-chloro-4-oxo-3-(pyrrolidin-3-ylmethyl)-3,4-dihydroquinazolin-2-yl)ethyl)amino)pyrimidine-5-carbonitrile], the results for the IC50 on PI3Kβ, at PI3Kδ and against PI3Kγ were 54 nM, 3 nM and at least 10000 nM, respectively.

As for `C[C@H](Nc1ncnc(N)c1C#N)c1nc2cccc(Cl)c2c(=O)n1CC1CCCN1` (stereo partly drawn) [Compound 90, 4-amino-6-(((1S)-1-(5-chloro-4-oxo-3-(pyrrolidin-2-ylmethyl)-3,4-dihydroquinazolin-2-yl)ethyl)amino)pyrimidine-5-carbonitrile], the IC50 against PI3Kβ is 2800 nM; at PI3Kδ, 37 nM; at PI3Kγ it was at least 10000 nM.
